Values joined by “and” are separate entries in the source; they are usually repeats but may differ in a detail not shown here. Equal values may be shown once. Read-outs that look alike come from different tables or passages of the source.
Legend:
HIVLAI = experiment: antiviral activity in MT-2 human-T-lymphoid cells exposed to HIVLAI; format: cell-based, HIV-1
Description: (§1) The ability of the nilotinib subunit, pyridinyl-pyrimidinyl amino benzamides to serve as P2 ligands in the S2 subsite of HIV-1 protease was investigated. The HIV-1 protease inhibitory activity of these compounds was evaluated in an enzyme-inhibitory assay reported by Toth and Marshall. […] We also determined the antiviral activity of these inhibitors in MT-2 human-T-lymphoid cells exposed to HIVLAI. […] We then examined a pyridyl thiazole heterocycle in place of the pyridyl pyrimidinyl scaffold in compounds 5a-d.

HIV-1 protease = target: T1, HIV-1 protease (Human immunodeficiency virus type 1 group M subtype B, UniProt P04585); experiment: HIV-1 protease enzyme-inhibitory assay (Toth and Marshall); format: biochemical; details: for Ki (nM) / Ki: HIV-1 protease inhibitory activity
T1 construct: catalytically active dimeric HIV-1 protease
Description: as §1

[1] = antiviral, MT-2 cells exposed to HIVLAI, Table 1 and text
[2] = Human immunodeficiency virus 1, MT2, antiviral, MT-2 cells exposed to HIVLAI, Table 1 and text, read-out: IC50
[3] = Human immunodeficiency virus 1, MT2, antiviral, MT-2 cells exposed to HIVLAI, Table 2, read-out: IC50

For `Cc1ccc(C(=O)N[C@@H](Cc2ccccc2)[C@H](O)CN(CC(C)C)S(=O)(=O)c2ccc3nc(NC4CC4)sc3c2)cc1Nc1cc(-c2cccnc2)ncn1`, the “IC50 (nM)” value (HIVLAI; [1]) was “Low nM” and the “Ki (nM)” value (HIV-1 protease) was “Low nM”.
`COc1ccc(S(=O)(=O)N(CC(C)C)C[C@@H](O)[C@H](Cc2ccccc2)NC(=O)c2cccc(Nc3nc(-c4cccnc4)cs3)c2)cc1` was tested, and the “IC50 (nM)” value (HIVLAI; [1]) was “Low nM” and the “Ki (nM)” value (HIV-1 protease) was “Low nM”.
`CC(C)CN(C[C@@H](O)[C@H](Cc1ccccc1)NC(=O)c1cccc(Nc2nc(-c3cccnc3)cs2)c1)S(=O)(=O)c1ccc2nc(NC3CC3)sc2c1` was tested, and the “IC50 (nM)” value (HIVLAI; [1]) was “Low nM” and the “Ki (nM)” value (HIV-1 protease) was “Low nM”.
In the case of `COc1ccc(S(=O)(=O)N(CC(C)C)C[C@@H](O)[C@H](Cc2ccccc2)NC(=O)c2ccc(C)c(Nc3nccc(-c4cccnc4)n3)c2)cc1` [Compound 5a, N-((2S,3R)-3-hydroxy-4-((N-isobutyl-4-methoxyphenyl)sulfonamido)-1-phenylbutan-2-yl)-4-methyl-3-((4-(pyridin-3-yl)pyrimidin-2-yl)amino)benzamide], the IC50 (HIVLAI; [2]) is reported as 154 nM, the Ki (HIV-1 protease) is reported as 0.028 nM and the “enzyme inhibitory Ki” value (HIV-1 protease; text b193) is reported as 28 PM.
`Cc1ccc(C(=O)N[C@@H](Cc2ccccc2)[C@H](O)CN(CC(C)C)S(=O)(=O)c2ccc(N)cc2)cc1Nc1nccc(-c2cccnc2)n1` [Compound 5b, N-((2S,3R)-4-((4-amino-N-isobutylphenyl)sulfonamido)-3-hydroxy-1-phenylbutan-2-yl)-4-methyl-3-((4-(pyridin-3-yl)pyrimidin-2-yl)amino)benzamide] gave an IC50 (HIVLAI; antiviral, MT-2 cells exposed to HIVLAI, Table 1 and text, read-out: IC50) of 66.8 nM and a Ki (HIV-1 protease) of 0.17 nM.
`COc1ccc(S(=O)(=O)N(CC(C)C)C[C@@H](O)[C@H](Cc2cc(F)cc(F)c2)NC(=O)c2ccc(C)c(Nc3nccc(-c4cccnc4)n3)c2)cc1` [Compound 5c, N-((2S,3R)-1-(3,5-difluorophenyl)-3-hydroxy-4-((N-isobutyl-4-methoxyphenyl)sulfonamido)butan-2-yl)-4-methyl-3-((4-(pyridin-3-yl)pyrimidin-2-yl)amino)benzamide] showed an IC50 (HIVLAI; [2]) of 124 nM and a Ki (HIV-1 protease) of 0.58 nM.
With `Cc1ccc(C(=O)N[C@@H](Cc2cc(F)cc(F)c2)[C@H](O)CN(CC(C)C)S(=O)(=O)c2ccc(N)cc2)cc1Nc1nccc(-c2cccnc2)n1` [Compound 5d, N-((2S,3R)-4-((4-amino-N-isobutylphenyl)sulfonamido)-1-(3,5-difluorophenyl)-3-hydroxybutan-2-yl)-4-methyl-3-((4-(pyridin-3-yl)pyrimidin-2-yl)amino)benzamide] the IC50 (HIVLAI; [2]) was 212 nM, the “reduction in antiviral activity” value (HIVLAI; over compound 5c) was 3 fold and the Ki (HIV-1 protease) was 1.92 nM.
Work on `COc1ccc(S(=O)(=O)N(CC(C)C)C[C@@H](O)[C@H](Cc2ccccc2)NC(=O)c2ccc(C)c(Nc3nc(-c4cccnc4)cs3)c2)cc1` [Compound 5e, N-((2S,3R)-3-hydroxy-4-((N-isobutyl-4-methoxyphenyl)sulfonamido)-1-phenylbutan-2-yl)-4-methyl-3-((4-(pyridin-3-yl)thiazol-2-yl)amino)benzamide] yielded an IC50 (HIVLAI; [2]) of 390 nM and a Ki (HIV-1 protease) of 38.3 nM.
For `COc1ccc(S(=O)(=O)N(CC(C)C)C[C@@H](O)[C@H](Cc2ccccc2)NC(=O)c2cccc(Nc3nc(-c4cccnc4)cs3)c2C)cc1` [Compound 5f, N-((2S,3R)-3-hydroxy-4-((N-isobutyl-4-methoxyphenyl)sulfonamido)-1-phenylbutan-2-yl)-2-methyl-3-((4-(pyridin-3-yl)thiazol-2-yl)amino)benzamide], the IC50 (HIVLAI; [2]) was greater than 1000 nM, the “antiviral activity (in words)” value (HIVLAI; MT-2 cells exposed to HIVLAI) was “did not exhibit any appreciable antiviral activity” and the Ki (HIV-1 protease) was 19.3 nM.
For `COc1ccc(S(=O)(=O)N(CC(C)C)C[C@@H](O)[C@H](Cc2ccccc2)NC(=O)c2cc(C)cc(Nc3nc(-c4cccnc4)cs3)c2)cc1` [Compound 5g, N-((2S,3R)-3-hydroxy-4-((N-isobutyl-4-methoxyphenyl)sulfonamido)-1-phenylbutan-2-yl)-3-methyl-5-((4-(pyridin-3-yl)thiazol-2-yl)amino)benzamide], the IC50 (HIVLAI; [2]) was greater than 1000 nM and the Ki (HIV-1 protease) was 185 nM.
In the case of `COc1ccc(S(=O)(=O)N(CC(C)C)C[C@@H](O)[C@H](Cc2ccccc2)NC(=O)c2cc(Nc3nc(-c4cccnc4)cs3)ccc2C)cc1` [Compound 5h, N-((2S,3R)-3-hydroxy-4-((N-isobutyl-4-methoxyphenyl)sulfonamido)-1-phenylbutan-2-yl)-2-methyl-5-((4-(pyridin-3-yl)thiazol-2-yl)amino)benzamide], the IC50 (HIVLAI; [2]) is reported as 580 nM and the Ki (HIV-1 protease) is reported as 8.7 nM.
`COc1ccc(S(=O)(=O)N(CC(C)C)C[C@@H](O)[C@H](Cc2ccccc2)NC(=O)c2ccc(C)c(Nc3nc(-c4cccnc4)cs3)c2C)cc1` [Compound 5i, N-((2S,3R)-3-hydroxy-4-((N-isobutyl-4-methoxyphenyl)sulfonamido)-1-phenylbutan-2-yl)-2,4-dimethyl-3-((4-(pyridin-3-yl)thiazol-2-yl)amino)benzamide] gave an IC50 (HIVLAI; [2]) of 510 nM.
For `COc1ccc(S(=O)(=O)N(CC(C)C)C[C@@H](O)[C@H](Cc2ccccc2)NC(=O)c2ccc(C)c(Nc3nc(C)cs3)c2)cc1` [Compound 5j, N-((2S,3R)-3-hydroxy-4-((N-isobutyl-4-methoxyphenyl)sulfonamido)-1-phenylbutan-2-yl)-4-methyl-3-((4-methylthiazol-2-yl)amino)benzamide], the IC50 (HIVLAI; Human immunodeficiency virus 1, MT2) was greater than 1000 nM, the “antiviral activity (in words)” value (HIVLAI; MT-2 cells exposed to HIVLAI) was “did not show any appreciable antiviral activity” and the Ki (HIV-1 protease) was 26 nM and 26.5 nM.
`COc1ccc(S(=O)(=O)N(CC(C)C)C[C@@H](O)[C@H](Cc2ccccc2)NC(=O)c2cccc(Nc3nc(C)cs3)c2C)cc1` [Compound 5k, N-((2S,3R)-3-hydroxy-4-((N-isobutyl-4-methoxyphenyl)sulfonamido)-1-phenylbutan-2-yl)-2-methyl-3-((4-methylthiazol-2-yl)amino)benzamide] gave an IC50 (HIVLAI; [3]) greater than 1000 nM and a Ki (HIV-1 protease) of 71.9 nM.
In the case of `COc1ccc(S(=O)(=O)N(CC(C)C)C[C@@H](O)[C@H](Cc2ccccc2)NC(=O)c2cc(C)cc(Nc3nc(C)cs3)c2)cc1` [Compound 5l, N-((2S,3R)-3-hydroxy-4-((N-isobutyl-4-methoxyphenyl)sulfonamido)-1-phenylbutan-2-yl)-3-methyl-5-((4-methylthiazol-2-yl)amino)benzamide], the IC50 (HIVLAI; [3]) is reported as greater than 1000 nM and the Ki (HIV-1 protease) is reported as 80 nM.
Compound `COc1ccc(S(=O)(=O)N(CC(C)C)C[C@@H](O)[C@H](Cc2ccccc2)NC(=O)c2cc(Nc3nc(C)cs3)ccc2C)cc1` [Compound 5m, N-((2S,3R)-3-hydroxy-4-((N-isobutyl-4-methoxyphenyl)sulfonamido)-1-phenylbutan-2-yl)-2-methyl-5-((4-methylthiazol-2-yl)amino)benzamide] has an IC50 (HIVLAI; [3]) greater than 1000 nM and a Ki (HIV-1 protease) of 75.9 nM.
In the case of `COc1ccc(S(=O)(=O)N(CC(C)C)C[C@@H](O)[C@H](Cc2ccccc2)NC(=O)c2ccc(C)c(Nc3nc(C(F)(F)F)cs3)c2)cc1` [Compound 5n, N-((2S,3R)-3-hydroxy-4-((N-isobutyl-4-methoxyphenyl)sulfonamido)-1-phenylbutan-2-yl)-4-methyl-3-((4-(trifluoromethyl)thiazol-2-yl)amino)benzamide], the IC50 (HIVLAI; [3]) is reported as greater than 1000 nM and the Ki (HIV-1 protease) is reported as 60.3 nM.
`COc1ccc(S(=O)(=O)N(CC(C)C)C[C@@H](O)[C@H](Cc2ccccc2)NC(=O)c2cccc(Nc3nc(C(F)(F)F)cs3)c2C)cc1` [Compound 5o, N-((2S,3R)-3-hydroxy-4-((N-isobutyl-4-methoxyphenyl)sulfonamido)-1-phenylbutan-2-yl)-2-methyl-3-((4-(trifluoromethyl)thiazol-2-yl)amino)benzamide] was tested, and the IC50 (HIVLAI; [3]) was greater than 1000 nM and the Ki (HIV-1 protease) was 72 nM.
`COCc1csc(Nc2ccc(C)c(C(=O)N[C@@H](Cc3ccccc3)[C@H](O)CN(CC(C)C)S(=O)(=O)c3ccc(OC)cc3)c2)n1` [Compound 5p, N-((2S,3R)-3-hydroxy-4-((N-isobutyl-4-methoxyphenyl)sulfonamido)-1-phenylbutan-2-yl)-5-((4-(methoxymethyl)thiazol-2-yl)amino)-2-methylbenzamide] gave an IC50 (HIVLAI; [2]) of 630 nM, an IC50 (HIVLAI; [3]) of 630 nM and a Ki (HIV-1 protease) of 18 nM.

— patent US20260272926A1, “HIV-1P ROTEASE INHIBITORS AND USES THEREOF” (Purdue Research Foundation, priority 2023, published 2026)
